Structures are written as SMILES. ≈ marks a conversion by molar mass, not a printed value. Where a name gives a salt, the structure may show the parent alone. Read-outs that look alike come from different tables or passages of the source. Marks after values point to notes of the source that are not given here.

A word on the MIC: it is the lowest concentration found to suppress growth.

One data set has as its system Slc:ddY male mice. Nature of the data set: Effect of inducing convulsion, intracisternal administration to mice. The conditions noted are these: i.cist., Probit method. Format: in vivo. How it is done:
The compounds (Compound Nos. 1, 2, and 3) of the present invention and Comparative Compounds A and B were individually dissolved in 5% glucose, to thereby prepare several samples to be tested. Groups of six-week-old Slc:ddY male mice (body weight: 23.9 to 27.4 g), each group consisting of 6 mice, were employed in the test. Each of the above-prepared samples was administered intracisternally to each mouse belonging to each group at concentrations shown in Tables 2 and 3 (5 μL/mouse). During 30 minutes after administration, it was observed whether each mouse suffered convulsion or died in an individual cage. Administration was performed according to the method described by Ueda, et al. (Reference 1).
Reference 1: Ueda H, Amano H, Shiomi H, Takagi H: Comparison of the analgesic effects of various opioid peptides by a newly devised intracisternal injection technique in conscious mice. Eur J Pharmacol. 1979; 56: 265-8.
Significant difference test between groups was performed in terms of incidence of convulsion according to the Fisher's direct probability calculation method (one-sided test, level of significance: P<0.05). On the basis of percentile incidence of convulsion, CD50 (50% concentration for inducing convulsion) and 95% confidence limit were calculated by the Probit method.

For another data set, the system named is S. aureus 870307. The data set is described as follows: Antibacterial activity (MIC), standard method of the Japan Society of Chemotherapy. The conditions noted are these: Staphylococcus aureus. Format: cell-based. How it is done: (§1) The antimicrobial activities of the compounds of the present invention were determined according to a standard method designated by the Japan Society of Chemotherapy. The results are expressed by MIC (μg/mL) (Table 1). In Table 1, S. aureus 870307 and S. pneumonia J24 are quinolone-resistant bacteria.

The subject of another data set is S. epidermidis 56500. The description is as above. The conditions noted are these: Staphylococcus epidermidis. The format is cell-based. How it is done: as §1
The subject of a further data set is P. Vulgalis 08601. Described as above. The format is cell-based. How it is done:
as §1

For another data set, the system named is K. pneumoniae TYPE I. The description is as above. The format is cell-based. The conditions noted are these: Klebsiella pneumoniae. How it is done:
as §1

Another data set relates to S. pyogenes G-36. The data set is described as above. The conditions noted are these: Streptococcus pyogenes, G36. Format: cell-based. How it is done:
as §1

In a further data set the test system is S. marcescens 10100. The description is as above. The conditions noted are these: Serratia marcescens. Format: cell-based. How it is done: as §1
The test system of another data set is P. aeruginosa 32104. Described as above. The format is cell-based. The conditions noted are these: Pseudomonas aeruginosa. How it is done:
as §1

The subject of a further data set is S. aureus FDA 209P. The data set is described as above. The conditions noted are these: Staphylococcus aureus, FDA209P. Format: cell-based. How it is done: as §1
For another data set, the system named is S. flexneri 2A 5503. Described as above. The format is cell-based. The conditions noted are these: Shigella flexneri, 2A5503, read-out: MIC. How it is done:
as §1

For a further data set, the system named is P. aeruginosa 32121. Described as above. Format: cell-based. The conditions noted are these: Pseudomonas aeruginosa. How it is done:
as §1

A further data set deals with S. pneumoniae J24. Described as above. The format is cell-based. The conditions noted are these: Streptococcus pneumoniae. How it is done: as §1
The subject of the next data set is E. coli NIHJ. The description is as above. The format is cell-based. The conditions noted are these: Escherichia coli. How it is done:
as §1

A further data set deals with E. faevcalis ATCC 19433. The data set is described as above. The format is cell-based. How it is done: as §1
A further data set concerns S. maltophilia IID 1275. Described as above. Format: cell-based. The conditions noted are these: Stenotrophomonas maltophilia, IID1275. How it is done:
as §1

The subject of data set [1] is Chinese hamster lung (CHL/IU) cells. Nature of the data set: Effect of inducing chromosomal aberration. The format is cell-based. The conditions noted are these: for Percentile induction of structural aberration (TA %): 24 hours, CHL/IU cells; for Significant increase in number of the cells exhibiting chromosomal aberration: at a concentration of up to 100 μg/mL. How it is done:
From each sample solution, samples to be tested having a concentration of 1, 3, 10, 30, 50, and 100 μg/mL (as reduced to free form) were prepared. As a negative control, 0.1 mol/L NaOH was employed.
Chinese hamster lung (CHL/IU) cells in logarithmic growth phase were employed. The cells were treated in a culture solution containing each sample to be tested for 24 hours. Subsequently, a chromosome specimen was prepared from the thus-treated cells. The culture solution employed was an Eagle's MEM (product of NISSUI PHARMACEUTICAL CO., LTD.) medium containing 15% fetal bovine serum (15% FBS-MEM).
In each sample concentration, 100 cells during metaphase were observed, to thereby record types and numbers of the chromosomal aberration.

The mark [2] stands for this setting: S. aureus 870307, quinolone-resistant, read-out: MIC.
The mark [3] stands for this setting: S. epidermidis 56500, read-out: MIC.
Setting [4] is: P. Vulgalis 08601, read-out: MIC.
Setting [5] is: K. pneumoniae TYPE I, read-out: MIC.
The mark [6] stands for this setting: S. pyogenes G-36, read-out: MIC.
[7] abbreviates: S. marcescens 10100, read-out: MIC.
Setting [8] is: P. aeruginosa 32104, read-out: MIC.
[9] abbreviates: S. aureus FDA 209P, read-out: MIC.
Where [10] appears, read: P. aeruginosa 32121, read-out: MIC.
[11] abbreviates: S. pneumoniae J24, quinolone-resistant, read-out: MIC.
The mark [12] stands for this setting: E. faevcalis ATCC 19433, read-out: MIC.
[13] abbreviates: S. maltophilia IID 1275, read-out: MIC.

Regarding `C[C@H]1CN(c2c(F)cc3c(=O)c(C(=O)O)cn4c3c2OC[C@@H]4C)C[C@H]1N` [Comparative Compound B, (3S)-10-[(3S,4S)-3-Amino-4-methylpyrrolidin-1-yl]-9-fluoro-2,3-dihydro-3-methyl-7-oxo-7H-pyrido[1,2,3-de][1,4]benzoxazine-6-carboxylic acid-hydrochloride, reference compound], the “CD50 (50% concentration for inducing convulsion), with 95% confidence limit” value (“CD50 … with 95% confidence limit” for short) in the data set on Slc:ddY male mice is given as 28.6 (16.8-48.5)^a) μg/5 μL/mouse. The MIC in the data set with S. aureus 870307 (870307) turned out to be 3.13 µg/mL; with S. epidermidis 56500 (56500) it was 0.1 µg/mL; in the data set with P. Vulgalis 08601 it was 0.006 µg/mL; with K. pneumoniae TYPE I it was 0.05 µg/mL; against S. pyogenes G-36 it was 0.1 µg/mL; against S. marcescens 10100 (10100), 0.05 µg/mL. In addition, the MIC in the data set with P. aeruginosa 32104 (32104) was 0.1 µg/mL; in the data set with S. aureus FDA 209P, 0.012 µg/mL; with S. flexneri 2A 5503, 0.012 µg/mL; against P. aeruginosa 32121 (32121), 0.025 µg/mL; against S. pneumoniae J24 (J24), 0.1 µg/mL; against E. coli NIHJ it was 0.012 µg/mL. For the same compound, the values for the MIC against E. faevcalis ATCC 19433 and in the data set on S. maltophilia IID 1275 were 0.2 µg/mL and 0.39 µg/mL, respectively.
`CC[C@H]1CN(c2c(F)cc3c(=O)c(C(=O)O)cn([C@@H]4C[C@@H]4F)c3c2OC)C[C@H]1N` [Compound No. 1, 7-[(3S,4S)-3-Amino-4-ethylpyrrolidin-1-yl]-6-fluoro-1-[(1R,2S)-2-fluorocyclopropyl]-8-methoxy-1,4-dihydro-4-oxoquinoline-3-carboxylic acid]: the “Percentile induction of structural aberration (TA %)” value in data set [1] (1 μg/mL) was determined as 0%; in [1] (3 μg/mL), 1%; in [1] (10 μg/mL), 2%; in data set [1] (30 μg/mL) it was 3%; in [1] (50 μg/mL), 2%; in [1] (100 μg/mL), 7%. In addition, the “Significant increase in number of the cells exhibiting chromosomal aberration” value in [1] is listed as “not observed”. Besides, in the data set on Slc:ddY male mice, the “CD50 … with 95% confidence limit” value is 49.2^b) μg/5 μL/mouse. For the same compound, the MIC in the data set with S. aureus 870307 (setting [2]) amounted to 0.2 µg/mL (≈ 0.491 µM); in the data set with S. epidermidis 56500 (setting [3]), 0.05 µg/mL (≈ 0.123 µM); in the data set with P. Vulgalis 08601 (setting [4]) it was 0.012 µg/mL (≈ 0.0295 µM); with K. pneumoniae TYPE I (setting [5]), 0.025 µg/mL (≈ 0.0614 µM); in the data set on S. pyogenes G-36 (setting [6]) it was 0.05 µg/mL (≈ 0.123 µM); with S. marcescens 10100 (setting [7]), 0.1 µg/mL (≈ 0.245 µM). The minimal inhibitory concentration (MIC) with P. aeruginosa 32104 (setting [8]) is 0.2 µg/mL (≈ 0.491 µM); with S. aureus FDA 209P (setting [9]) it was 0.006 µg/mL (≈ 0.0147 µM); in the data set on S. flexneri 2A 5503, 0.006 µg/mL (≈ 0.0147 µM); with P. aeruginosa 32121 (setting [10]), 0.1 µg/mL (≈ 0.245 µM); in the data set with S. pneumoniae J24 (setting [11]) it was 0.025 µg/mL (≈ 0.0614 µM); in the data set with E. coli NIHJ (E. coli NIHJ, read-out: MIC), 0.006 µg/mL (≈ 0.0147 µM). Further, the MIC in the data set on E. faevcalis ATCC 19433 (setting [12]) came to 0.1 µg/mL (≈ 0.245 µM); in the data set on S. maltophilia IID 1275 (setting [13]), 0.05 µg/mL (≈ 0.123 µM).
On to `CC[C@H]1CN(c2c(F)cc3c(=O)c(C(=O)O)cn4c3c2OC[C@@H]4C)C[C@H]1N` [Compound No. 3, (3S)-10-[(3S,4S)-3-Amino-4-ethylpyrrolidin-1-yl]-9-fluoro-2,3-dihydro-3-methyl-7-oxo-7H-pyrido[1,2,3-de][1,4]benzoxazine-6-carboxylic acid], for which the “Percentile induction of structural aberration (TA %)” value in data set [1] (1 μg/mL) turned out to be 3%; in data set [1] (3 μg/mL), 0%; in data set [1] (10 μg/mL), 2%; in data set [1] (30 μg/mL), 1%; in [1] (50 μg/mL), 5%; in data set [1] (100 μg/mL) it was 9%. In addition, the “Significant increase in number of the cells exhibiting chromosomal aberration” value in data set [1] was “not observed”. Further, in the data set with Slc:ddY male mice, the “CD50 … with 95% confidence limit” value is given as 64.5 (47.7-80.8) μg/5 μL/mouse. The minimum inhibitory concentration (MIC) came to 0.78 µg/mL (≈ 2.08 µM) in the data set on S. aureus 870307 (setting [2]); 0.05 µg/mL (≈ 0.133 µM) in the data set on S. epidermidis 56500 (setting [3]); 0.006 µg/mL (≈ 0.016 µM) with P. Vulgalis 08601 (setting [4]); 0.05 µg/mL (≈ 0.133 µM) with K. pneumoniae TYPE I (setting [5]); 0.1 µg/mL (≈ 0.266 µM) in the data set on S. pyogenes G-36 (setting [6]); 0.025 µg/mL (≈ 0.0666 µM) in the data set with S. marcescens 10100 (setting [7]). Besides, the MIC with P. aeruginosa 32104 (setting [8]) was 0.1 µg/mL (≈ 0.266 µM); in the data set with S. aureus FDA 209P (setting [9]), 0.012 µg/mL (≈ 0.032 µM); in the data set on S. flexneri 2A 5503, 0.006 µg/mL (≈ 0.016 µM); in the data set with P. aeruginosa 32121 (setting [10]), 0.05 µg/mL (≈ 0.133 µM); in the data set on S. pneumoniae J24 (setting [11]), 0.1 µg/mL (≈ 0.266 µM); in the data set with E. coli NIHJ (E. coli NIHJ, read-out: MIC), 0.006 µg/mL (≈ 0.016 µM). For the same compound, the MIC in the data set with E. faevcalis ATCC 19433 (setting [12]) is 0.1 µg/mL (≈ 0.266 µM); in the data set with S. maltophilia IID 1275 (setting [13]) it was 0.2 µg/mL (≈ 0.533 µM).

The values above are taken from patent publication US7977327B2, “Substituted pyrrolidine derivative” (Daiichi Sankyo Company, Limited, priority 2004, dated 2011).
